# Active and inactive are the calls of the source. No cut-off for these calls is given here. Positions of bridges follow the written chain, without caps; N, C: chain ends. Non-standard residues stand in square brackets, D forms with d. Residues, ends and D or L forms follow the SMILES beside them.
# Key:
# Assay type in all cases: functional
# Staphylococcus aureus [1] = test: Antibiofilm activity against pre-established 36 hrs old bacterial biofilms of Staphylococcus aureus NCTC 8530 incubated for 4 hrs by XTT assay
# Staphylococcus aureus [2] = test: Antibiofilm activity against pre-established 36 hrs old bacterial biofilms of Staphylococcus aureus NCTC 8530 assessed as reduction in number of viable bacterial cells incubated for 4 hrs by XTT assay
# Escherichia coli [3] = test: Bactericidal activity against Escherichia coli MG1655 planktonic forms
# Staphylococcus aureus [4] = test: Bactericidal activity against Staphylococcus aureus NCTC 8530 planktonic forms
# Escherichia coli [5] = test: Antibiofilm activity against pre-established 36 hrs old bacterial biofilms of Escherichia coli MG1655 incubated for 4 hrs by XTT assay
# Staphylococcus aureus [6] = test: Antibiofilm activity against pre-established 36 hrs old bacterial biofilms of Staphylococcus aureus NCTC 8530 incubated for 4 hrs by […] LIVE/DEAD BacLight staining based confocal microscopy
# Escherichia coli [7] = test: Antibiofilm activity against pre-established 36 hrs old bacterial biofilms of Escherichia coli MG1655 incubated for 4 hrs Antibiofilm activity against pre-established 36 hrs old bacterial biofilms of Escherichia coli MG1655 incubated for 4 hrs by LIVE/DEAD BacLight staining based confocal microscopy
SMILES,MBEC (Staphylococcus aureus [1]),MBEC (Staphylococcus aureus [2]),MBC (Escherichia coli [3]) [µM],MBC (Staphylococcus aureus [4]) [µM],MBEC (Escherichia coli [5]) [µM],Activity (Staphylococcus aureus [6]),Activity (Escherichia coli [7])
CC[C@@H](C)[C@H]1NC(=O)[C@H](CCCCN)NC(=O)[C@H]([C@@H](C)O)NC(=O)[C@H](Cc2ccccc2)NC(=O)[C@@H]([C@H](C)CC)NC(=O)[C@@H]2CCCN2C(=O)[C@@H](NC(=O)[C@H](C)N)CSSC[C@@H](C(=O)N[C@@H](CCCNC(=N)N)C(=O)O)NC(=O)[C@H](CCCCN)NC(=O)[C@H](C)NC(=O)[C@@H](CCCNC(=N)N)NC(=O)CNC(=O)[C@@H](CCCNC(=N)N)NC(=O)[C@H](Cc2ccc(O)cc2)NC(=O)[C@H]([C@@H](C)O)NC(=O)CNC(=O)[C@H](CCC(N)=O)NC1=O (H-ACP[dI]FTK[dI]QGTY[dR]G[dR]AKCR-OH; disulfide 2-18),inactive,Active,5,5,–,–,–
CC[C@@H](C)[C@H]1NC(=O)[C@H]2CCCN2C(=O)[C@H](NC(=O)[C@@H](C)N)CSSC[C@H](C(=O)O)NC(=O)[C@@H]([C@H](C)CC)NC(=O)[C@@H](CCCNC(=N)N)NC(=O)[C@@H](CCCNC(=N)N)NC(=O)CNC(=O)[C@@H]([C@H](C)CC)NC(=O)[C@@H](CCCNC(=N)N)NC(=O)[C@@H](CCCCN)NC(=O)[C@@H](C)NC(=O)[C@@H](CCCCN)NC(=O)CNC(=O)[C@@H](CCCNC(=N)N)NC(=O)[C@@H](Cc2ccc(O)cc2)NC(=O)[C@@H]([C@H](C)O)NC(=O)CNC(=O)[C@@H](CCC(N)=O)NC(=O)[C@@H]([C@H](C)CC)NC(=O)[C@@H](CCCCN)NC(=O)[C@@H]([C@H](C)O)NC(=O)[C@@H](Cc2ccccc2)NC1=O,200 µM,–,1,2,200,Active,Active
CC[C@H](C)[C@@H]1NC(=O)[C@H](CCCCN)NC(=O)[C@H]([C@@H](C)O)NC(=O)[C@H](Cc2ccccc2)NC(=O)[C@H]([C@@H](C)CC)NC(=O)[C@@H]2CCCN2C(=O)[C@@H](NC(=O)[C@H](C)N)CSSC[C@@H](C(=O)O)NC(=O)[C@H]([C@@H](C)CC)NC(=O)[C@@H](CCCNC(=N)N)NC(=O)[C@H](CCCNC(=N)N)NC(=O)CNC(=O)[C@@H]([C@@H](C)CC)NC(=O)[C@H](CCCNC(=N)N)NC(=O)[C@H](CCCCN)NC(=O)[C@H](C)NC(=O)[C@H](CCCCN)NC(=O)CNC(=O)[C@H](CCCNC(=N)N)NC(=O)[C@H](Cc2ccc(O)cc2)NC(=O)[C@H]([C@@H](C)O)NC(=O)CNC(=O)[C@H](CCC(N)=O)NC1=O,150 µM,–,1,2,–,Active,Active
CC[C@H](C)[C@@H]1NC(=O)[C@H](CCCCN)NC(=O)[C@H]([C@@H](C)O)NC(=O)[C@H](Cc2ccccc2)NC(=O)[C@H]([C@@H](C)CC)NC(=O)[C@@H]2CCCN2C(=O)[C@@H](NC(=O)[C@H](C)N)CSSC[C@@H](C(=O)N[C@@H](CCCNC(=N)N)C(=O)O)NC(=O)[C@H](CCCCN)NC(=O)[C@H](C)NC(=O)[C@H](CCCNC(=N)N)NC(=O)CNC(=O)[C@H](CCCNC(=N)N)NC(=O)[C@H](Cc2ccc(O)cc2)NC(=O)[C@H]([C@@H](C)O)NC(=O)CNC(=O)[C@H](CCC(N)=O)NC1=O (H-ACPIFTKIQGTYRGRAKCR-OH; disulfide 2-18),–,Active,5,5,–,–,–

# — ChEMBL document CHEMBL4052697, “Chimeric analogs of human β-defensin 1 and θ-defensin disrupt pre-established bacterial biofilms” (2017)
